The values that follow come from ChEMBL document CHEMBL5465560, “Selectivity Literature for EUbOPEN Chemogenomic Library” (2024).

The target of assay [1] is Tyrosine-protein kinase SYK (Homo sapiens, UniProt P43405). The assay is described as follows: Selectivity interaction (Kinase panel (Z-LYTE Assay)) EUB0001632a SYK. To be noted: at 10 µM.
For assay [2], the target named is T1, Gamma-aminobutyric acid receptor subunit alpha-1 (Homo sapiens) (UniProt P14867).
T1 sequence (whole entry): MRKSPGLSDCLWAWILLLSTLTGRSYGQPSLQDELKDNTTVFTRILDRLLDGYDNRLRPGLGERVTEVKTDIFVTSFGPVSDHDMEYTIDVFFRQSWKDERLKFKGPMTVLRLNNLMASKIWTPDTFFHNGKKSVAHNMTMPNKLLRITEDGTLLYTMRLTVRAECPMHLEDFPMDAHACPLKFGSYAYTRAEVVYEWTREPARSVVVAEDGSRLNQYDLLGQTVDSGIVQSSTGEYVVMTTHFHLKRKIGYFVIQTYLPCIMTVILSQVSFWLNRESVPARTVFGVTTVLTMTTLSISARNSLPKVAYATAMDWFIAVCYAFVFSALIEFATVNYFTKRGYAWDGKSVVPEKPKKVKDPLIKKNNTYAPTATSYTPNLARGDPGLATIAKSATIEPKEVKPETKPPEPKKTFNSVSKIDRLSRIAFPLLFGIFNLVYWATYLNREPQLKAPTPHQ
The assay is described as follows: Selectivity interaction (Eurofins CEREP Diversity Profile (receptors and ion channels)) EUB0000279b GABRA1. As to conditions: at 10 µM.

Assay [3] concerns the target Tyrosine-protein kinase Srms (Homo sapiens) (UniProt Q9H3Y6). To be noted: at 10 µM.
Assay [4] has as its target Hepatocyte growth factor-like protein (Homo sapiens) (UniProt P26927). Nature of the assay: Selectivity interaction (KinomeScan (DiscoverX)) EUB0000666a MST1. To be noted: at 10 µM.
A further assay addresses Focal adhesion kinase 1 (Homo sapiens, UniProt Q05397). Nature of the assay: Selectivity interaction (KinomeScan (DiscoverX)) EUB0000607a PTK2. As to conditions: at 10 µM.
The target of assay [5] is T2, Serine/threonine-protein kinase Sgk3 (Homo sapiens) (UniProt Q96BR1).
T2 sequence (whole entry): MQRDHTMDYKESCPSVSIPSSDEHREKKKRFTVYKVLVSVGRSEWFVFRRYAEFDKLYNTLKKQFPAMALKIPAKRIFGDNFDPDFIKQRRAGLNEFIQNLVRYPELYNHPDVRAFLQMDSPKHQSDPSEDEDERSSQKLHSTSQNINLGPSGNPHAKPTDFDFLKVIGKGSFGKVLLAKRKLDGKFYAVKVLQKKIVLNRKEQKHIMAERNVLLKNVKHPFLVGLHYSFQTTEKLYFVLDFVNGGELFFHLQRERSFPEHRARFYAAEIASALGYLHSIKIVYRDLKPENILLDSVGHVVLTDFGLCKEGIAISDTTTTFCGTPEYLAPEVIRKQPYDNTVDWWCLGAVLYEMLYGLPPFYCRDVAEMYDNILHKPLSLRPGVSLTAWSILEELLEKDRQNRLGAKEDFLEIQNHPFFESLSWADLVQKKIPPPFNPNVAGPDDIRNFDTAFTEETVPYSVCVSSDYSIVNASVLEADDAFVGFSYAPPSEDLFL
The assay is described as follows: Selectivity interaction (ActivX KiNativ screen (kinase selectivity in THP-1 cell lysates)) EUB0000639a SGK3. The format is subcellular. As to conditions: lysate, at 0.04 µM.

Assay [6] has as its target T3, Aurora kinase A (Homo sapiens) (UniProt O14965).
T3 sequence (whole entry): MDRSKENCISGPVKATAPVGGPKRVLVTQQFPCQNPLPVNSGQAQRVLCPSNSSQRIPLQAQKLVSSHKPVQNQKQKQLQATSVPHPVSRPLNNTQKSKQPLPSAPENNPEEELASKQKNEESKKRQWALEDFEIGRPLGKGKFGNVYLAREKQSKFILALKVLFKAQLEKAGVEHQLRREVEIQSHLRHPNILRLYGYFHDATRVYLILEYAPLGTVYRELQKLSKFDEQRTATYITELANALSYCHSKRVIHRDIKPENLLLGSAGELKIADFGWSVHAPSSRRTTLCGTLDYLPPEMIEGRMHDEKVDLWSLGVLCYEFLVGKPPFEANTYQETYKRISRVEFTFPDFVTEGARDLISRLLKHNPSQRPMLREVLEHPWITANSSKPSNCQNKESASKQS
The assay is described as follows: Selectivity interaction (KinomeScan (DiscoverX)) EUB0000045b STK6.

For assay [7], the target named is Cyclin-dependent kinase 5/CDK5 activator 1 (Homo sapiens) (UniProt Q00535+Q15078). Nature of the assay: Selectivity interaction (ProQinase) EUB0000171b CDK5. The format is protein-complex assay. To be noted: at 1 µM.
Sequence of Cyclin-dependent kinase 5/CDK5 activator 1 (Homo sapiens) (Q00535 whole entry): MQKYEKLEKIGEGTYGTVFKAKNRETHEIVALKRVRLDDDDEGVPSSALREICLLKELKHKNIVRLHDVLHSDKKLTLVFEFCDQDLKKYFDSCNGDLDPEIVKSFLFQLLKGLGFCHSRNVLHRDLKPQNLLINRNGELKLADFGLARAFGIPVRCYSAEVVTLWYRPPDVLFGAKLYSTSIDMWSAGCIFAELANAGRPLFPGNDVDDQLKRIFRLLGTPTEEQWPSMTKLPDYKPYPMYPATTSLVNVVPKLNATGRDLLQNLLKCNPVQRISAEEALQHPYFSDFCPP
Sequence of Cyclin-dependent kinase 5/CDK5 activator 1 (Homo sapiens) (Q15078 99-307 partner limits assumed): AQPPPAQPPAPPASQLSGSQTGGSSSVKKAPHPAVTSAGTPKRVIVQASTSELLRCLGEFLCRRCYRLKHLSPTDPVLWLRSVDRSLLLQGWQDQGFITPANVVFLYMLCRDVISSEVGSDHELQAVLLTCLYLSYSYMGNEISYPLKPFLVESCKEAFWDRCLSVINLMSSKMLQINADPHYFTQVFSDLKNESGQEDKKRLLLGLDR
For assay [8], the target named is T4, Ephrin type-A receptor 6 (Homo sapiens) (UniProt Q9UF33).
T4 sequence (whole entry): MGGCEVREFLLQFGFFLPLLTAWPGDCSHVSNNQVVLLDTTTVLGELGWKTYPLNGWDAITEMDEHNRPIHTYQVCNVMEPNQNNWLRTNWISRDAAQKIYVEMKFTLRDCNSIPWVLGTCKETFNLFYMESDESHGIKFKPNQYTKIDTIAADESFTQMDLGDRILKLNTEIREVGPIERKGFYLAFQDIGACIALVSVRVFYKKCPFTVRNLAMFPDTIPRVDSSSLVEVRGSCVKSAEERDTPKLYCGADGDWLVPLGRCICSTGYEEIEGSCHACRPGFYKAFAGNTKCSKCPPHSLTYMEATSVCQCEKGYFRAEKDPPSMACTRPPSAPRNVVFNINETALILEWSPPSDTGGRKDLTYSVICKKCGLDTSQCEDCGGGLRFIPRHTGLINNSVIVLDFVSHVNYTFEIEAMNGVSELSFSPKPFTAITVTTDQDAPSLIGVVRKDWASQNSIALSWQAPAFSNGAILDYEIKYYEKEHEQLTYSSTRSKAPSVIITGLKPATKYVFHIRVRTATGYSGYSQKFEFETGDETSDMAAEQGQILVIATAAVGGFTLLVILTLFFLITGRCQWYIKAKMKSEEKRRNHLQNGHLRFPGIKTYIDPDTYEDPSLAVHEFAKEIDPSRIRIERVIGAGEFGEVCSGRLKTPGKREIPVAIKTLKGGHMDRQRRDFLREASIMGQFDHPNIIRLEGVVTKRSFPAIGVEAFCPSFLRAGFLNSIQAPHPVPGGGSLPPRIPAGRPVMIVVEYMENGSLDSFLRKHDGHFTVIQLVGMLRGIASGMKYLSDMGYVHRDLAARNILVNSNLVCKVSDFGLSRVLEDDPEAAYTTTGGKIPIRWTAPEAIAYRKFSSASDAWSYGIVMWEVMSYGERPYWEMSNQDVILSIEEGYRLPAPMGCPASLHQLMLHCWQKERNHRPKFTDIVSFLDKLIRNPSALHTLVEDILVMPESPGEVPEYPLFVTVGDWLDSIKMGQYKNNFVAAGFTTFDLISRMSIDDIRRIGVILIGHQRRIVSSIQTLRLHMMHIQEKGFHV
Nature of the assay: Selectivity interaction (ProQinase) EUB0000171b EPHA6.

Assay [9] addresses AP2-associated protein kinase 1 (Homo sapiens, UniProt Q2M2I8). Nature of the assay: Selectivity interaction (KinomeScan (DiscoverX)) EUB0000092b AAK1. As to conditions: at 10 µM.

Sequence of Focal adhesion kinase 1 (Q05397 2-1052 limits assumed): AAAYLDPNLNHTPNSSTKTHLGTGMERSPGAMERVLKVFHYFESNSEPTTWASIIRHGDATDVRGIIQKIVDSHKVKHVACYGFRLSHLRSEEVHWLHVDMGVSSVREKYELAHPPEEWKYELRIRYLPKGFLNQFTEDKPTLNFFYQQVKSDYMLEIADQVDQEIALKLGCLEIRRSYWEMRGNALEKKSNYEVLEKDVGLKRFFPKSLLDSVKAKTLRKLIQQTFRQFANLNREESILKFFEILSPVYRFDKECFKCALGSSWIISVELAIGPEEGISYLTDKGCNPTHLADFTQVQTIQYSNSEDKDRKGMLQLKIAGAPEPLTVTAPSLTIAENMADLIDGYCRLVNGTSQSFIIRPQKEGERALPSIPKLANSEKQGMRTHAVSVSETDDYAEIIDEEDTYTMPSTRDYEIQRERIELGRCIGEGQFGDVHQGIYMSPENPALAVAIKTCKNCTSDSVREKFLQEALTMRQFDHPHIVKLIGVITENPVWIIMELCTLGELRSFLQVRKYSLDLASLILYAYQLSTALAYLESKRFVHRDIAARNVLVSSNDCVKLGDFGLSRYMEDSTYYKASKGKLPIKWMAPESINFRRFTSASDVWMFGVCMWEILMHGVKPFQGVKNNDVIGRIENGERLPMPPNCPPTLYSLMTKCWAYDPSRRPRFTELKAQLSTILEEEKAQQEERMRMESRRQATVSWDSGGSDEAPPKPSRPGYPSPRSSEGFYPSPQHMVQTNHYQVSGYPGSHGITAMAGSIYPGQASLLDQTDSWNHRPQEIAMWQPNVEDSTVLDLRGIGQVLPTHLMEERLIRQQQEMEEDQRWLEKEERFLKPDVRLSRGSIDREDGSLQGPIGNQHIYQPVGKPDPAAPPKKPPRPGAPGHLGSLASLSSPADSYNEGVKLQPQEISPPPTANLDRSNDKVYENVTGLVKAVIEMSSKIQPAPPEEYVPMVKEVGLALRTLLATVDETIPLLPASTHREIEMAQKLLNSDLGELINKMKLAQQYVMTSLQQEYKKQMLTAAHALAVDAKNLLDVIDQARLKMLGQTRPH
Sequence of Tyrosine-protein kinase Srms (Homo sapiens) (Q9H3Y6 whole entry): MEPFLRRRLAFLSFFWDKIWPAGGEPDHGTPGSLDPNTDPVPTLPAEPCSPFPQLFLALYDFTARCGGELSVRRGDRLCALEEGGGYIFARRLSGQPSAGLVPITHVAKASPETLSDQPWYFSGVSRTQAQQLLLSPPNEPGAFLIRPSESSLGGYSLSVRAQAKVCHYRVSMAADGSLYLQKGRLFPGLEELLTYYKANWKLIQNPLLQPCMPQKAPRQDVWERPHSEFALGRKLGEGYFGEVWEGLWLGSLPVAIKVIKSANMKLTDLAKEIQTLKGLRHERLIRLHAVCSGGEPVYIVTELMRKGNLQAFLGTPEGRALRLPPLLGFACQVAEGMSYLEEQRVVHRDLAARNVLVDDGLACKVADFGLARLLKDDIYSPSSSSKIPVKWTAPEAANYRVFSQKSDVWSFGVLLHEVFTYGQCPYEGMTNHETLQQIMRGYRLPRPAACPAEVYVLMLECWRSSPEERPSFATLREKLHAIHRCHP
Sequence of AP2-associated protein kinase 1 (Q2M2I8 whole entry, looked up): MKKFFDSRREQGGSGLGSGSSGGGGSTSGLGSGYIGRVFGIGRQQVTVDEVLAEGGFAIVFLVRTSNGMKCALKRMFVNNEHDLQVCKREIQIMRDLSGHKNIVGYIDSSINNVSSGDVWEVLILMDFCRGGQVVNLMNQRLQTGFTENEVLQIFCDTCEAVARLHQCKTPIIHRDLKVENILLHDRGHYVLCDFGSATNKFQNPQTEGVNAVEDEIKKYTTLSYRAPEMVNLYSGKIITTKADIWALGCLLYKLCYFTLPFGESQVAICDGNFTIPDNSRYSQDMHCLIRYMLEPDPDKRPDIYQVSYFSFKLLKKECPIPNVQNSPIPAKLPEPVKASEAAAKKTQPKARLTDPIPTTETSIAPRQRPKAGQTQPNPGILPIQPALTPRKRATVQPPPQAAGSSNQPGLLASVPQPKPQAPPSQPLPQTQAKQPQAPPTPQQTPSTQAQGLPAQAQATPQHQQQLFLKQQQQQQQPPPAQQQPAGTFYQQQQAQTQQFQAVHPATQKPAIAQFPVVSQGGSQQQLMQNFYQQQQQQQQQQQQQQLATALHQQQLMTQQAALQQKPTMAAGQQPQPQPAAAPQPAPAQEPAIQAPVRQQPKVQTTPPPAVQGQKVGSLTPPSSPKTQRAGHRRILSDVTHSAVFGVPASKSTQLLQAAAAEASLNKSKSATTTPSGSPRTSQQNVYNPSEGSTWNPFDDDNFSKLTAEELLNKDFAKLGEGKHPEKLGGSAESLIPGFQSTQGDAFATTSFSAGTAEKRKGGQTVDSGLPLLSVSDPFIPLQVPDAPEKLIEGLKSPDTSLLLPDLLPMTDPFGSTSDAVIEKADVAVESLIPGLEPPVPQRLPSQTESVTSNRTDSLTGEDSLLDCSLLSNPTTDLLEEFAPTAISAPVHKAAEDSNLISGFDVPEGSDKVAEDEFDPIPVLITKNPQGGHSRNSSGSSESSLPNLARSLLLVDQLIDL

`Cn1cc(-n2cnc3c(NCc4nc5cc(Cl)c(Cl)cc5[nH]4)nc(N4CCOCC4)nc32)cn1` returned a % of control in assay [1] of 3.71%.
In [2], `CC(=O)c1cc(-c2ccccc2OCC2CC2)c2ncccn12` came in with a % of control of 103%.
Compound `CCN(CC)CCCCNc1ncc2cc(-c3cc(OC)cc(OC)c3)c(NC(=O)NC(C)(C)C)nc2n1` yielded a % of control in [3] of 100%.
Compound `O=C(NOC[C@H](O)CO)c1ccc(F)c(F)c1Nc1ccc(I)cc1F` had a % of control in assay [4] of 100%.
Regarding `CNC(=O)Nc1ccc(-c2nc(N3CC4CCC(C3)O4)c3cnn(C4CCC5(CC4)OCCO5)c3n2)cc1`, the % of control at Focal adhesion kinase 1 was determined as 78%.
Take `CC[C@@H]1[C@H](F)C(=O)N[C@@H]1COc1nccc2cc(C(N)=O)c(OC)cc12` [ZIMLOVISERTIB]: the % of inhibition in assay [5] is 3.1%.
As for `C=CC(=O)Nc1cc(-n2c(=O)ccc3cnc4ccc(-c5ccc(NS(C)(=O)=O)cc5)cc4c32)ccc1C`, the values for the % of control in assay [6] (at 1 µM) and in assay [6] (at 10 µM) were 75% and 100%, respectively.
Regarding `C=CC(=O)Nc1cccc(C(=O)Nc2ccc(Nc3cc(-c4[nH]c(SC)nc4C)ccn3)cc2)c1`, the % of control in [7] was found to be 74%; in assay [8] (at 1 µM) it was 99%; in assay [8] (at 5 µM), 100%.
Consider `CCC(=O)N1CCN(c2ccc(-n3c(=O)ccc4cnc5ccc(-c6cnc7ccccc7c6)cc5c43)cc2C(F)(F)F)CC1`, for which the % of control in [9] came to 75%.
